{
  "source": "patent US8461142B2",
  "about": "“Water-soluble anionic bacteriochlorophyll derivatives and their uses” (Yeda Research and Development Co. Ltd., priority 2002, dated 2013)",
  "key": {"[1]": {"assay": "Biodistribution in CD1 nude mice (Pd content of organs)", "type": "in vivo", "method": "Mice were sacrificed at different times following compound 4 injection (6 mg/kg), and Pd content was determined for the indicated organs. Each time point represents average of three mice±STD.\n(§1) Pigment 4 of the invention (6 mg/kg body) was injected to CD1 nude mice via tail vein. Mice were sacrificed at the indicated times, and samples of the indicated organs or tissues were placed and weighed in pre-weighted vials and immediately frozen on dry ice. For examination, each sample was thawed and homogenized (1:10 w/v) in double-distilled water. Aliquots of the homogenate (0.5 ml) were lyophilized in Eppendorff test tubes. Then 0.2 ml of HNO3 (70%, TraceSelect, Fluka) was added to each dry sample, incubated for 1 h at 90° C. and diluted in double-distilled water to 10 ml. Palladium concentrations were determined by ICP-MS. Background was determined for each organ/tissue on identical samples taken from untreated mice, and values were subtracted accordingly."}, "[2]": {"tested_on": "H5V mouse endothelial cells", "assay": "Phototoxicity assay (Neutral Red viability after illumination), H5V cells", "type": "cell-based", "settings": "4 hours incubation; for dark toxicity: kept in the dark, tested range; for LD50 (phototoxicity): washed, illuminated (λ>650 nm, 12 J/cm^2), survival 24 h after illumination", "method": "(§2) M2R mouse melanoma, H5V mouse endothelial and C6 rat glioma cells were cultured as monolayers in Dulbecco's modified Eagle's medium (DMEM)/F12 containing 25 mM HEPES, pH 7.4, 10% fetal bovine serum (FBS), glutamine (2 mM), penicillin (0.06 mg/ml), and streptomycin (0.1 mg/ml) (hereinafter referred to as the “Culture Medium”). Cells were grown at 37° C. in an 8% CO2-humidified atmosphere.\n(§3) To determine the photodynamic efficacy, cells were preincubated with increasing concentrations of the pigments in the dark for the times and conditions as indicated for the individual experiments. Unbound sensitizer was removed by washing the cells once with culture medium, and the plates were illuminated at room temperature from the bottom (λ>650 nm, 12 J/cm^2). The light source was a 100 W Halogen lamp (Osram, Germany) equipped with a 4-cm water filter. The cultures were placed in the culture incubator and cell survival was determined 24 h after illumination, by Neutral Red viability assay. Three kinds of controls were used: (i) light control: cells illuminated in the absence of pigments; (ii) dark control: cells treated with pigments but kept in the dark; and (iii) untreated cells that were kept in the dark.\n(§4) The phototoxicity of compounds 4 and 8 was determined as described in (ii) above in M2R mouse melanoma and H5V mouse endothelial cells. Cells were preincubated with increasing concentrations of the compound for 4 hours, washed and illuminated or kept in the dark."}, "M2R mouse melanoma cells": {"tested_on": "M2R mouse melanoma cells", "assay": "Phototoxicity assay (Neutral Red viability after illumination), M2R cells", "type": "cell-based", "settings": "4 hours incubation; for dark toxicity: kept in the dark, tested range; for LD50 (phototoxicity): washed, illuminated (λ>650 nm, 12 J/cm^2), survival 24 h after illumination", "method": "as §2, §3, §4"}, "[3]": {"tested_on": "choroid and overlying retina (choriocapillaries)", "procedure": "The WST11 powder was diluted in endotoxin-free sterile water at a concentration of 10 mg/ml, and shaken until complete dissolution. […] To calculate the volume to be injected, adjustment was made according to the rabbit weight. The appropriate volume solution was injected intravenously as a bolus via the marginal ear vein.\nPigmented rabbits (136 “Fauve de Bourgogne” rabbits, 10-12 weeks old, 2.5-3 kg; Elevage des Pins, Epeigne-sur-Dême, France) were used. Acute and long term PDT effects on the rabbit eye were investigated for the following parameters: 1) 753 nm laser fluence (25 and 50 J/cm^2), Compound 4 (also designated WST11) doses (2.5 and 5 mg/kg) and distance to light illumination (DLI) of 1,5,10 and 15 minutes. 2) 689 nm laser fluence (10, 50, 100 J/cm^2), verteporfin doses (3, 6 and 12 mg/m^2) and a constant DLI of 5 min. These PDT parameters encompassed an array of effects on the choroid and the overlying retina were delivered for 83 seconds to induce occlusive, subthreshold occlusive and non-occlusive vascular events. Treated rabbit eyes were examined and followed by indirect ophthalmoscopy, fluorescein angiography (FA) and histology at various intervals after PDT.\nFor the histology, enucleated eyes were dissected under a binocular microscope. A 4 mm biopsy punch was used to excise the full thickness of treated zones. These tissues were fixed in glutaraldehyde, processed in cacodylate buffer and embedded in plastic. Semi-thin sections were obtained using a microtome and counter-stained with hematoxilin-eosin. These sections were analyzed using phase contrast microscopy. Specific sites of interest were further processed for TEM. Ultrathin sections were obtained using an ultramicrotome and counter-stained with uranyl acetate."}, "M2R melanoma xenografts": {"tested_on": "M2R melanoma xenografts", "assay": "PDT of M2R melanoma xenografts in CD1 nude mice", "type": "in vivo", "settings": "for mice cure rate: 6 mg/kg i.v.", "method": "(§5) M2R or C6 cells (2×10^6) were implanted subcutaneously on the back of the mice; tumors developed to the treatment size (6-8 mm) within 2-3 weeks.\nStock solutions of the compounds of the invention were prepared prior to use by dissolving the dry pigment directly in PBS to the desired concentration for injection.\nThe M2R tumor-bearing mice were anesthetized and the pigment was injected intravenously (i.v.) via the tail vein. The tumors were immediately illuminated transcutaneously for 5 min by 755 nm diode laser (CeramOptec, Germany) with light dose of either 30 J/cm2 (100 mW/cm2), 39 J/cm2 (130 mW/cm2) or 45 J/cm2 (150 mW/cm2). After the treatment, the mice were returned to the cage. […] In the light control group, the mice were illuminated with 45 J/cm^2.\nIn these experiments (see section (vii) above), a dedicated medical laser matched to the peak absorption of 4 (CeramOptec, Germany, 755 nm) was used. In order to determine the optimal drug/light protocol, mice were treated with drug dose of 6 mg/kg and increasing the light intensity (FIG. 7)."}, "[4]": {"assay": "Aqueous solubility and stability of solution", "type": "physicochemical", "source_text": "Compound 4 is a pure and stable bacteriochlorophyll derivative isolated as a black purple crystalline powder. […] It is characterized by the following properties: (a) 4 main absorption peaks (750, 530, 385 and 330 nm). The strongest absorbance of light is near the infrared (≈750 nm) where tissue transmittance is the highest; (b) a very low cytotoxicity in the dark. Thus, tissue damage can be controlled by the light dose and length of exposure; (c) it is rapidly cleared from the body after administration. Therefore, potential skin photosensitization damage on exposure to ambient light or to the sun light is minimal; (d) generation of reactive oxygen species (ROS) is high because of efficient intersystem crossing (ISC)."}, "rat C6 glioma xenografts": {"tested_on": "rat C6 glioma xenografts", "assay": "Vascular shutdown and permeability (Evans Blue) after PDT of C6 glioma xenografts", "type": "in vivo, mice", "settings": "9 mg/kg, 100 mW/cm^2 for 5 min; 24 hours after PDT", "method": "FIGS. 8a-8h are photographs showing the selective effect of PDT in mice bearing rat C6 glioma xenografts and treated with compound 4. (a-d) PDT treated animal; (e-h) untreated animal. (a) before treatment; (b) 3 hours after PDT and Evans-Blue (EB) injection; (c) skin flap of the treated area, 24 hours after PDT; (d) axial slice of the treated tumor 24 hours after PDT; (e) before EB injection; (f) 3 hours after EB injection; (g) skin flap 24 hours after EB injection; (h) axial slice of the untreated tumor, 24 hours after EB injection. T-tumor; S-skin; M-muscle; E-edema.\nas §5\nMice bearing C6 glioma tumor xenografts were treated with pigment 4 (9 mg/kg) and light (100 mW/cm^2 for 5 min) Immediately after treatment, Evans Blue (EB; 1% in PBS) was injected (0.5 ml, i.p.). Mice were photographed at 3 and 24 hours after treatment. The mice were sacrificed 24 hours after treatment and skin flap was made for each mouse and photographed. Then the tumor was removed with the skin above it, frozen for 1 hour at −20° C., and then axial slice was made and the slice was photographed. Control mice were injected with Evans Blue at the same time as the treated mice, and the protocol was continued as described above for all the mice together."}, "[5]": {"assay": "Pharmacokinetics in CD1 nude mice blood (Pd by ICP-MS)", "type": "in vivo", "method": "as §1, with “FIG. 5 is a graph showing pharmacokinetics of compound 4 in CD1 nude mice blood. Following compound 4 injection (6 mg/kg), blood samples were collected from the same mouse at the indicated times and Pd was determined. Each time point represents average of three mice±STD. Pigment” for “Pigment”, “Then 0.2 ml of HNO3 (70%, TraceSelect, Fluka) was added to each dry sample, incubated for 1 h at 90° C. and diluted in double-distilled water to 10 ml.” left out"}},
  "data": [
    {"compound": "Pd-Bacteriopheophorbide a [Pd-Bpheid, reference compound]", "values": [
      {"measurement": "time after injection to reach background levels", "setting": "[1]; mouse body, not shown", "result": 48, "unit": "h"}
    ]},
    {"compound": "Palladium 3^1-oxo-15-methoxycarbonylmethyl-Rhodobacteriochlorin 13^1,17^3-di(3-sulfopropyl)amide dipotassium salt [Compound 8]", "values": [
      {"measurement": "dark toxicity", "setting": "[2]", "result": "without any dark toxicity"},
      {"measurement": "LD50 (phototoxicity)", "setting": "[2]", "result": "~2", "unit": "µM"},
      {"measurement": "dark toxicity", "setting": "M2R mouse melanoma cells", "result": "without any dark toxicity"},
      {"measurement": "LD50 (phototoxicity)", "setting": "M2R mouse melanoma cells", "result": "~2", "unit": "µM"}
    ]},
    {"compound": "CC[C@H]1c2cc3[nH]c(c(CC(=O)OC)c4nc(cc5[nH]c(cc(n2)[C@@H]1C)c(C(C)=O)c5C)[C@@H](C)[C@@H]4CCC(=O)O)c(C(=O)NCCS(=O)(=O)[O-])c3C.[K+]", "note": "[Compound 5, 3^1-oxo-15-methoxycarbonylmethyl-Rhodobacteriochlorin 13^1-(2-sulfoethyl)amide dipotassium salt]", "values": [
      {"measurement": "dark toxicity", "setting": "M2R mouse melanoma cells", "result": "no dark toxicity"},
      {"measurement": "LD50 (phototoxicity)", "setting": "M2R mouse melanoma cells", "result": "~5", "unit": "µM"}
    ]},
    {"compound": "Zinc 3^1-oxo-15-methoxycarbonylmethyl-Rhodobacteriochlorin 13^1-(2-sulfoethyl) amide dipotassium salt [Compound 11]", "values": [
      {"measurement": "dark toxicity", "setting": "M2R mouse melanoma cells", "result": "no dark toxicity"},
      {"measurement": "LD50 (phototoxicity)", "setting": "M2R mouse melanoma cells", "result": "~5", "unit": "µM"}
    ]},
    {"compound": "verteporfin [reference compound]", "values": [
      {"measurement": "eyes with occlusive events (observed by FA)", "setting": "[3]; 12 mg/m^2, 100 J/cm^2, DLI 5 minutes, 689 nm", "result": 89, "unit": "%"},
      {"measurement": "choriocapillaries occlusion on FA", "setting": "[3]; non-occlusive parameters: 3 mg/m^2, 10 J/cm^2, DLI 5 minutes", "result": "did not induce any choriocapillaries occlusion"}
    ]},
    {"compound": "Palladium 3^1-oxo-15-methoxycarbonylmethyl-Rhodobacteriochlorin 13^1-(2-sulfo-ethyl)amide dipotassium salt [Compound 4]", "values": [
      {"measurement": "dark toxicity", "setting": "[2]", "result": "without any dark toxicity"},
      {"measurement": "LD50 (phototoxicity)", "setting": "[2]", "result": "~2", "unit": "µM"},
      {"measurement": "dark toxicity", "setting": "M2R mouse melanoma cells", "result": "without any dark toxicity"},
      {"measurement": "LD50 (phototoxicity)", "setting": "M2R mouse melanoma cells", "result": "~2", "unit": "µM"},
      {"measurement": "mice cure rate", "setting": "M2R melanoma xenografts; 30 J/cm^2, 5 min illumination at 755 nm immediately after injection", "result": 43, "unit": "%"},
      {"measurement": "mice cure rate", "setting": "M2R melanoma xenografts; 45 J/cm^2, 5 min illumination at 755 nm immediately after injection", "result": 60, "unit": "%"},
      {"measurement": "mice survival", "setting": "M2R melanoma xenografts; 9 mg/kg i.v., 30 J/cm^2, 5 min illumination", "result": 70, "unit": "%"},
      {"measurement": "dark toxicity in animals", "setting": "M2R melanoma xenografts; 6 or 9 mg/kg, kept in the dark", "result": "No dark toxicity"},
      {"measurement": "stability of formulation", "setting": "[4]; 10 mg/ml in endotoxin-free sterile water, 4° C., protected from light", "result": 24, "unit": "h"},
      {"measurement": "solubility", "setting": "[4]; aqueous solution", "result": "soluble in aqueous solution"},
      {"measurement": "effect on tumor blood perfusion (Evans Blue)", "setting": "rat C6 glioma xenografts", "result": "vascular shutdown"},
      {"measurement": "treated eyes with total choroidal occlusion associated with structural lesions of the overlying RPE and retina", "setting": "[3]; fluence 50 J/cm^2, 5 mg/kg, DLI 1 minute, 753 nm", "result": 100, "unit": "%"},
      {"measurement": "choriocapillaries occlusion and retinal lesions", "setting": "[3]; non-occlusive parameters: 25 J/cm^2, 5 mg/kg, DLI 10 minutes", "result": "did not induce choriocapillaries occlusion nor retinal lesions"},
      {"measurement": "duration of occlusion of the choriocapillaries after PDT", "setting": "[3]; rabbit eye", "result": "up to one week"},
      {"measurement": "time after injection to background levels in all tissues", "setting": "[1]; 6 mg/kg i.v.", "result": "≤ 30", "unit": "min"},
      {"measurement": "time for pigment levels to drop to almost background levels in most of the examined organs", "setting": "[1]; 6 mg/kg i.v.", "result": "20 to 30", "unit": "min"},
      {"measurement": "CL (clearance)", "setting": "[5]; 6 mg/kg i.v., mice blood", "result": 0.89, "unit": "mL/min"},
      {"measurement": "Kel (rate of elimination)", "setting": "[5]; 6 mg/kg i.v., mice blood", "result": 0.42, "unit": "min⁻¹"},
      {"measurement": "Vd (volume of distribution)", "setting": "[5]; 6 mg/kg i.v., mice blood", "result": 2.12, "unit": "mL"},
      {"measurement": "T0.5", "setting": "[5]; 6 mg/kg i.v., mice blood, monophasic", "result": 1.65, "unit": "min"},
      {"measurement": "pigment cleared from blood within the first 10-min after i.v. injection", "setting": "[5]; mouse, in vivo", "result": "about 90%"}
    ]}
  ]
}
